Where two headings read alike, the source gives them in different places. Marks after values point to notes of the source that are not given here.
How the values were obtained:
[1] = test system: Candida albicans 595/20; assay: MIC/MFC, microdilution method (modified CLSI M27); type: cell-based; details: C. albicans 595/20 (clinical isolate), 28 °C; for MIC / MFC: Candida albicans; for MIC: 595/20, 24 h, read-out: Minimum inhibitory concentration (MIC); for MIC / Minimum inhibitory concentration (MIC): 90% growth inhibition, YPG; for MFC / Minimum fungicidal concentration (MFC*): no growth on solid YPG; for MFC / Minimum inhibitory concentration (MIC) / Minimum fungicidal concentration (MFC*): 24 h; for MFC: read-out: Minimum fungicidal concentration (MFC*)
Description: (§1) Minimum inhibitory concentration (MIC) and minimum fungicidal concentration (MFC) values were determined based on the modified CLSI M27 protocol. The study was performed using the microdilution method on sterile 96-well titration plates. The S. cerevisiae Σ1278b ATCC 42800, S. cerevisiae BY4741 ATCC 201388, C. albicans ATCC 10231, C. albicans 595/20 and R. mucilaginosa ATCC 4056 were incubated for 18 h at 28 °C (without shaking), then centrifuged (1000 rcf, 5 min), and the obtained pellet was suspended in fresh YPG medium and optical density (OD) = 0.25–0.3 was determined at a wavelength (λ) of 590 nm. Next, 10 μl of selected compounds at appropriate final concentrations (5–1280 μM) were spotted into the wells of the titration plate. Then, 80 μl of YPG medium and 10 μl of culture with a fixed OD were added. All tests were performed in triplicate. The plate was incubated at 28 °C for 24 h. The YPG medium was a negative control, while the prepared culture not treated with compounds was a positive control. […] The minimum inhibitory concentration was determined at 90% growth inhibition.
(§2) In order to determine the MFC of selected gemini surfactants, 10 μl of culture was transferred to solid YPG medium from the wells of the titration plate in which MIC was observed and from wells with the compound with higher concentrations. The spotted suspensions were incubated at 28 °C for 24 h. After incubation, inhibition of the growth of microorganisms was observed.

[2] = test system: Candida albicans ATCC 10231; assay: MIC/MFC, microdilution method (modified CLSI M27); type: cell-based; details: 28 °C; for MIC / MFC: Candida albicans, ATCC10231, 24 h; for MIC: C. albicans ATCC 10231, 90% growth inhibition, read-out: Minimum inhibitory concentration (MIC); for MIC / Minimum inhibitory concentration (MIC): YPG; for MFC: C. albicans ATCC 10231, no growth on solid YPG, read-out: Minimum fungicidal concentration (MFC*); for Minimum inhibitory concentration (MIC) / Minimum fungicidal concentration (MFC*): C. albicans ATCC 10231, 24 h; for Minimum inhibitory concentration (MIC): 90% growth inhibition; for Minimum fungicidal concentration (MFC*): no growth on solid YPG
Description: as §1, §2

[3] = test system: Rhodotorula mucilaginosa ATCC 4056; assay: MIC/MFC, microdilution method (modified CLSI M27); type: cell-based; details: 28 °C; for Minimum inhibitory concentration (MIC) / MIC: YPG; for MIC: read-out: Minimum inhibitory concentration (MIC); for MFC: read-out: Minimum fungicidal concentration (MFC*)
Description: as §1, §2

[4] = test system: Saccharomyces cerevisiae BY4741 ATCC 201388; assay: MIC/MFC, microdilution method (modified CLSI M27); type: cell-based; details: for MIC: YPG, read-out: Minimum inhibitory concentration (MIC); for MIC / Minimum fungicidal concentration (MFC*): 28 °C; for Minimum fungicidal concentration (MFC*): no growth on solid YPG; for MFC: read-out: Minimum fungicidal concentration (MFC*), S. cerevisiae BY4741, no growth on solid YPG, 28 °C
Description: as §1, §2

[5] = test system: Saccharomyces cerevisiae Σ1278b ATCC 42800; assay: MIC/MFC, microdilution method (modified CLSI M27); type: cell-based; details: S. cerevisiae Σ1278b, 28 °C; for MIC / Minimum inhibitory concentration (MIC): 90% growth inhibition, YPG; for MIC: read-out: Minimum inhibitory concentration (MIC); for MFC / Minimum fungicidal concentration (MFC*): no growth on solid YPG; for MFC: read-out: Minimum fungicidal concentration (MFC*)
Description: as §1, §2

[6] = test system: sheep erythrocytes; assay: Hemolysis test; type: cell-based; details: 1.5 h, 37 °C; for Concentration up to which no hemolysis was caused: sheep erythrocytes; for Hemolytic effect on sheep erythrocytes: tested 2.5–1280 µM
Description: The hemolysis test was performed based on the Obłąk et al.[80] method with modification. Sheep blood (5 cm^3) was centrifuged (699 rcf, 15 min), washed several times with PBS buffer (pH 7.4), and suspended in PBS. […] The positive control was 1% SDS and the negative control was PBS. The plates were incubated for 1.5 h at 37 °C. After incubation, the plates were centrifuged (699 rcf, 15 min) and the supernatant was applied to a new titration plate. Absorbance was measured at λ = 540 nm (BioTek 800 TS Absorbance Reader). The experiment was performed in 4 repetitions.

[7] = test system: C. albicans ATCC 10231; assay: Adhesion of C. albicans to silicone surface; type: cell-based, Candida albicans
Description: (§3) The effect of gemini QAS on the adhesion of C. albicans ATCC 10231 was determined using a modification of the method of Obłąk et al.. […] After incubation, the culture was centrifuged (1000 rcf, 5 min), and the resulting pellet was suspended in PBS (pH 7.4) until OD = 0.8 (λ = 590 nm). • In the case of testing the polystyrene surface, 100 µl of tested gemini QAS at concentrations of 20–1280 µM was added to the wells of a 96-well titration plate, incubated for 2 h at 37 °C, rinsed with sterile distilled water, and then spotted with 100 µl of the obtained culture and incubated at 37 °C for 4 h. After this time, the culture was removed, the plates were rinsed with sterile distilled water and placed in an oven (60 °C, 20 min). Then, crystal violet (0.1%) was added to the wells of the titration plate, stained for 5 min and rinsed with sterile distilled water until all traces of violet were removed from the rinsed water. Then the washing mixture (1% SDS, 50 mmol HCl, 100% isopropanol) was added. The absorbance of the samples was read using a spectrophotometer (BioTek 800 TS Absorbance Reader) at λ = 590 nm. The positive control was the culture wells to which the tested gemini QAS were not added, and the negative control was the medium. The experiment was performed in 3 repetitions. • When the tested surface was stainless steel (round washers Ø 0.4 cm), silicone (0.5 cm long fragments of Foley catheters) or glass (1 cm^2 coverslips), the tested materials were incubated for 2 h at 37 °C with shaking (100 rpm) in the presence of the tested gemini QAS at concentrations of 80–640 µM. Then, the materials were rinsed with sterile distilled water, transferred to tubes with culture and incubated for 4 h at 37 °C with shaking (100 rpm). After incubation, the materials were rinsed with sterile distilled water. […] Next, the washing mixture (1% SDS, 50 mmol HCl, 100% isopropanol) was added and the absorbance of the samples was read using a spectrophotometer (BioTek 800 TS Absorbance Reader) at λ = 590 nm. […] After this time, the colonies growing on the plates were counted. […]

[8] = test system: C. albicans ATCC 10231; assay: Adhesion of C. albicans to stainless steel surface; type: cell-based, Candida albicans; details: concentration not stated (tested 80–640 µM)
Description: as §3

[9] = R. mucilaginosa ATCC 4056, 90% growth inhibition, 24 h
[10] = R. mucilaginosa ATCC 4056, no growth on solid YPG, 24 h
[11] = S. cerevisiae BY4741, 90% growth inhibition, 24 h
[12] = concentration not stated (tested 80–640 µM)
[13] = Rhodotorula mucilaginosa, ATCC4056, 24 h, R. mucilaginosa ATCC 4056, no growth on solid YPG
[14] = Saccharomyces cerevisiae, ATCC201388, 24 h, S. cerevisiae BY4741, 90% growth inhibition
[15] = Saccharomyces cerevisiae, ATCC201388, 24 h
[16] = Saccharomyces cerevisiae, ATCC42800, 24 h

| Structure (SMILES) | MIC [1] [µM] | MFC [1] [µM] | MIC [2] [µM] | MFC [2] [µM] | Minimum inhibitory concentration (MIC) [3, 9] | MIC [3, 9] [µM] | Minimum fungicidal concentration (MFC*) [3, 10] | MIC [4, 11] [µM] | Minimum fungicidal concentration (MFC*) ([4]; S. cerevisiae BY4741, 24 h) [µM] | MIC ([5]; 24 h) [µM] | MFC ([5]; 24 h) [µM] | Concentration up to which no hemolysis was caused [6] [µM] | Minimum inhibitory concentration (MIC) [1] | Minimum fungicidal concentration (MFC*) [1] | Minimum inhibitory concentration (MIC) [2] | Minimum fungicidal concentration (MFC*) [2] | Reduction of adhesion of C. albicans cells to silicone [7, 12] | Inhibition of adhesion of C. albicans to stainless steel [8] | MFC [3, 13] [µM] | MIC [4, 14] [µM] | also measured |
| --- | --- | --- | --- | --- | --- | --- | --- | --- | --- | --- | --- | --- | --- | --- | --- | --- | --- | --- | --- | --- | --- |
| CCCCCCCCCCCC(=O)N(CCCN(CCC[N+](C)(C)C)C(=O)CCCCCCCCCCC)CCC[N+](C)(C)C [2xC12BrG3] | 1280 | > 1280 | 640 | 640 | 10 10* µM | 10 | 10 10* µM | 20 | 320 | 240 | 320 | ≤ 20 |  |  |  |  |  |  |  |  |  |
| CCCCCCCCCCCC(=O)N(CCCN(CCC[N+](C)(C)C)C(=O)CCCCCCCCCCC)CCC[N+](C)(C)C [2xC12MeCO3G3, dimethyl{{3-[N-(3-{N-[3-(dimethylammonium)propyl]dodecylamido}propyl}dodecylamido}propyl}}ammonium dimethylcarbonate] |  |  |  |  | 320 320* µM |  | 320 320* µM | 160 | 1280 | 640 | > 1280 |  | > 1280 > 1280* µM | > 1280 > 1280* µM | > 1280 > 1280* µM | > 1280 > 1280* µM | 80–90% | approximately 60% |  |  | Hemolytic effect on sheep erythrocytes [6]: did not cause hemolysis; Hemolytic effect on sheep erythrocytes ([6]; listed as dimethylcarbonate with 12-carbon alkyl chains): no hemolytic effect |
| CCCCCCCCCCCCCC(=O)N(CCCN(CCC[N+](C)(C)C)C(=O)CCCCCCCCCCCCC)CCC[N+](C)(C)C [2xC14BrG3] | 640 | > 1280 | 640 | 1280 |  |  |  |  |  |  |  |  |  |  |  |  |  |  | 320 | 160 | MIC ([3]; Rhodotorula mucilaginosa, ATCC4056, 24 h, R. mucilaginosa ATCC 4056, 90% growth inhibition): 80 µM; MFC [4, 15]: 1280 µM; MIC [5, 16]: 360 µM; MFC [5, 16]: 640 µM |
| CCCCCCCCCCCCCCCC(=O)N(CCCN(CCC[N+](C)(C)C)C(=O)CCCCCCCCCCCCCCC)CCC[N+](C)(C)C [2xC16BrG3] | > 1280 | > 1280 | > 1280 | > 1280 | > 640 640* µM |  |  |  |  |  |  | ≤ 80 |  |  |  |  |  | approximately 60% | 640 | 320 | MFC [4, 15]: > 1280 µM; MIC [5, 16]: > 1280 µM; MFC [5, 16]: > 1280 µM |
| CCCCCCCCCCCCCCCC(=O)N(CCCN(CCC[N+](C)(C)C)C(=O)CCCCCCCCCCCCCCC)CCC[N+](C)(C)C [2xC16LaG3] |  |  |  |  |  | 80 |  | 640 | > 1280 |  |  | ≤ 40 | > 1280 > 1280* µM | > 1280 > 1280* µM | > 1280 > 1280* µM | > 1280 > 1280* µM |  |  |  |  | MFC [3, 10]: 640 µM; Minimum inhibitory concentration (MIC) ([5]; 24 h): > 1280 > 1280* µM; Minimum fungicidal concentration (MFC*) ([5]; 24 h): > 1280 > 1280* µM; Reduction of adhesion of C. albicans cells to silicone ([7]; 640 µM): completely reduced the adhesion |
| CCCCCCCCCCCCCCCC(=O)N(CCCN(CCC[N+](C)(C)C)C(=O)CCCCCCCCCCCCCCC)CCC[N+](C)(C)C [2xC16MeCO3G3, dimethyl{{3-[N-(3-{N-[3-(dimethylammonium)propyl]hexadecylamido}propyl}hexadecylamido}propyl}}ammonium dimethylcarbonate] |  |  |  |  | 640 640* µM |  | 640 640* µM | 640 | 1280 |  |  | ≤ 80 | > 1280 > 1280* µM | > 1280 > 1280* µM | > 1280 > 1280* µM | > 1280 > 1280* µM | 80–90% | approximately 50% |  |  | Minimum inhibitory concentration (MIC) ([5]; 24 h): > 1280 > 1280* µM; Minimum fungicidal concentration (MFC*) ([5]; 24 h): > 1280 > 1280* µM |

— PMC11187217, “Anti-adhesive, anti-biofilm and fungicidal action of newly synthesized gemini quaternary ammonium salts” (Scientific Reports, 2024)
